Patent US20100267561A1, “HERBICIDAL PYRIDAZINONE DERIVATIVES” (priority 2007, published 2010)

What was measured:
Experiment in all cases: Test E pre-/postemergence plant response
Type in all cases: in vivo
[1] = tested on: Italian ryegrass (Lolium multiflorum); details: scale 0 to 100
How it was run: (§1)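 In this greenhouse assay, sown seeds received preemergence treatment and young plants of 2 to 18 cm (1- to 4-leaf stage) received postemergence treatment, both with compound in a non-phytotoxic solvent and surfactant vehicle. Effects were rated visually 14 to 21 days later on a 0–100 control scale.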

[2] = tested on: bermudagrass (Cynodon dactylon); details: scale 0 to 100
How it was run: as §1

[3] = tested on: black mustard (Brassica nigra); details: scale 0 to 100
How it was run: as §1

[4] = tested on: common chickweed (Stellaria media); details: Postemergence, scale 0 to 100
How it was run: as §1

[5] = tested on: common purslane (Portulaca oleracea); details: scale 0 to 100
How it was run: as §1

[6] = tested on: dallisgrass (Paspalum dilatatum); details: scale 0 to 100
How it was run: as §1

[7] = tested on: goosegrass (Eleusine indica); details: scale 0 to 100
How it was run: as §1

[8] = tested on: green foxtail (Setaria viridis); details: scale 0 to 100
How it was run: as §1

[9] = tested on: johnsongrass (Sorghum halepense); details: scale 0 to 100
How it was run: as §1

[10] = tested on: large crabgrass (Digitaria sanguinalis); details: scale 0 to 100
How it was run: as §1

[11] = tested on: purple nutsedge (Cyperus rotundus); details: scale 0 to 100
How it was run: as §1

[12] = tested on: southern (S.) sandbur (Cenchrus echinatus); details: scale 0 to 100
How it was run: as §1

`CCc1cc(-c2ccc(C(F)(F)F)cc2)nn1-c1c(O)cnn(C)c1=O` [Compound 11, 4-[5-ethyl-3-[4-(trifluoromethyl)phenyl]-1H-pyrazol-1-yl]-5-hydroxy-2-methyl-3(2H)-pyridazinone] was tested, and the “Plant response rating, Ryegrass, Italian” value ([1]; 4 g ai/ha, Postemergence) was 75, the “Plant response rating, Ryegrass, Italian” value ([1]; 16 g ai/ha, Preemergence) was 80 and the “Plant response rating, Ryegrass, Italian” value ([1]; 31 g ai/ha, Preemergence) was 100. For the same compound, the “Plant response rating, Ryegrass, Italian” value ([1]; Postemergence, 8 g ai/ha) was 90, the “Plant response rating, Ryegrass, Italian” value ([1]; Postemergence, 16 g ai/ha) was 95 and the “Plant response rating, Ryegrass, Italian” value ([1]; Postemergence, 31 g ai/ha) was 95. The “Plant response rating, Ryegrass, Italian” value ([1]; Preemergence, 4 g ai/ha) was 20, the “Plant response rating, Bermudagrass” value ([2]; 4 g ai/ha, Postemergence) was 10 and the “Plant response rating, Bermudagrass” value ([2]; 8 g ai/ha, Preemergence) was 25. For the same compound, the “Plant response rating, Bermudagrass” value ([2]; 16 g ai/ha, Preemergence) was 40, the “Plant response rating, Bermudagrass” value ([2]; 31 g ai/ha, Preemergence) was 100 and the “Plant response rating, Bermudagrass” value ([2]; Postemergence, 8 g ai/ha) was 35. The “Plant response rating, Bermudagrass” value ([2]; Postemergence, 16 g ai/ha) was 80, the “Plant response rating, Bermudagrass” value ([2]; Postemergence, 31 g ai/ha) was 95 and the “Plant response rating, Bermudagrass” value ([2]; Preemergence, 4 g ai/ha) was 15. The “Plant response rating, Mustard, Black” value ([3]; 4 g ai/ha, Postemergence) was 0, the “Plant response rating, Mustard, Black” value ([3]; 8 g ai/ha, Preemergence) was 0 and the “Plant response rating, Mustard, Black” value ([3]; 16 g ai/ha, Preemergence) was 0. The “Plant response rating, Mustard, Black” value ([3]; 31 g ai/ha, Preemergence) was 0, the “Plant response rating, Mustard, Black” value ([3]; Postemergence, 8 g ai/ha) was 0 and the “Plant response rating, Mustard, Black” value ([3]; Postemergence, 16 g ai/ha) was 0. For the same compound, the “Plant response rating, Mustard, Black” value ([3]; Postemergence, 31 g ai/ha) was 0, the “Plant response rating, Mustard, Black” value ([3]; Preemergence, 4 g ai/ha) was 0 and the “Plant response rating, Chickweed” value ([4]; 4 g ai/ha) was 0. For the same compound, the “Plant response rating, Chickweed” value ([4]; 8 g ai/ha) was 0, the “Plant response rating, Chickweed” value ([4]; 16 g ai/ha) was 0 and the “Plant response rating, Chickweed” value ([4]; 31 g ai/ha) was 0. For the same compound, the “Plant response rating, Purslane” value ([5]; 4 g ai/ha, Postemergence) was 0, the “Plant response rating, Purslane” value ([5]; 16 g ai/ha, Preemergence) was 0 and the “Plant response rating, Purslane” value ([5]; 31 g ai/ha, Preemergence) was 0. The “Plant response rating, Purslane” value ([5]; Postemergence, 8 g ai/ha) was 0, the “Plant response rating, Purslane” value ([5]; Postemergence, 16 g ai/ha) was 0 and the “Plant response rating, Purslane” value ([5]; Postemergence, 31 g ai/ha) was 0. The “Plant response rating, Purslane” value ([5]; Preemergence, 4 g ai/ha) was 0, the “Plant response rating, Dallisgrass” value ([6]; 4 g ai/ha, Postemergence) was 60 and the “Plant response rating, Dallisgrass” value ([6]; 8 g ai/ha, Preemergence) was 20. The “Plant response rating, Dallisgrass” value ([6]; 16 g ai/ha, Preemergence) was 35, the “Plant response rating, Dallisgrass” value ([6]; 31 g ai/ha, Preemergence) was 85 and the “Plant response rating, Dallisgrass” value ([6]; Postemergence, 8 g ai/ha) was 75. The “Plant response rating, Dallisgrass” value ([6]; Postemergence, 16 g ai/ha) was 90, the “Plant response rating, Dallisgrass” value ([6]; Postemergence, 31 g ai/ha) was 90 and the “Plant response rating, Dallisgrass” value ([6]; Preemergence, 4 g ai/ha) was 10. The “Plant response rating, Goosegrass” value ([7]; 4 g ai/ha, Postemergence) was 10, the “Plant response rating, Goosegrass” value ([7]; 8 g ai/ha, Preemergence) was 25 and the “Plant response rating, Goosegrass” value ([7]; 16 g ai/ha, Preemergence) was 50. The “Plant response rating, Goosegrass” value ([7]; 31 g ai/ha, Preemergence) was 90, the “Plant response rating, Goosegrass” value ([7]; Postemergence, 8 g ai/ha) was 35 and the “Plant response rating, Goosegrass” value ([7]; Postemergence, 16 g ai/ha) was 80. For the same compound, the “Plant response rating, Goosegrass” value ([7]; Postemergence, 31 g ai/ha) was 85, the “Plant response rating, Goosegrass” value ([7]; Preemergence, 4 g ai/ha) was 25 and the “Plant response rating, Foxtail, Green” value ([8]; 4 g ai/ha, Postemergence) was 60. The “Plant response rating, Foxtail, Green” value ([8]; 8 g ai/ha, Preemergence) was 50, the “Plant response rating, Foxtail, Green” value ([8]; 16 g ai/ha, Preemergence) was 98 and the “Plant response rating, Foxtail, Green” value ([8]; 31 g ai/ha, Preemergence) was 98. The “Plant response rating, Foxtail, Green” value ([8]; Postemergence, 8 g ai/ha) was 90, the “Plant response rating, Foxtail, Green” value ([8]; Postemergence, 16 g ai/ha) was 98 and the “Plant response rating, Foxtail, Green” value ([8]; Postemergence, 31 g ai/ha) was 100. For the same compound, the “Plant response rating, Foxtail, Green” value ([8]; Preemergence, 4 g ai/ha) was 0, the “Plant response rating, Johnsongrass” value ([9]; 4 g ai/ha, Postemergence) was 95 and the “Plant response rating, Johnsongrass” value ([9]; 16 g ai/ha, Preemergence) was 90. The “Plant response rating, Johnsongrass” value ([9]; 31 g ai/ha, Preemergence) was 95, the “Plant response rating, Johnsongrass” value ([9]; Postemergence, 8 g ai/ha) was 100 and the “Plant response rating, Johnsongrass” value ([9]; Postemergence, 16 g ai/ha) was 100. The “Plant response rating, Johnsongrass” value ([9]; Postemergence, 31 g ai/ha) was 100, the “Plant response rating, Johnsongrass” value ([9]; Preemergence, 4 g ai/ha) was 75 and the “Plant response rating, Crabgrass, Large” value ([10]; 4 g ai/ha, Postemergence) was 60. For the same compound, the “Plant response rating, Crabgrass, Large” value ([10]; 8 g ai/ha, Preemergence) was 0, the “Plant response rating, Crabgrass, Large” value ([10]; 16 g ai/ha, Preemergence) was 30 and the “Plant response rating, Crabgrass, Large” value ([10]; 31 g ai/ha, Preemergence) was 100. For the same compound, the “Plant response rating, Crabgrass, Large” value ([10]; Postemergence, 8 g ai/ha) was 70, the “Plant response rating, Crabgrass, Large” value ([10]; Postemergence, 16 g ai/ha) was 95 and the “Plant response rating, Crabgrass, Large” value ([10]; Postemergence, 31 g ai/ha) was 100. The “Plant response rating, Crabgrass, Large” value ([10]; Preemergence, 4 g ai/ha) was 0, the “Plant response rating, Nutsedge, Purple” value ([11]; 4 g ai/ha, Postemergence) was 0 and the “Plant response rating, Nutsedge, Purple” value ([11]; 16 g ai/ha, Preemergence) was 0. For the same compound, the “Plant response rating, Nutsedge, Purple” value ([11]; 31 g ai/ha, Preemergence) was 0, the “Plant response rating, Nutsedge, Purple” value ([11]; Postemergence, 8 g ai/ha) was 0 and the “Plant response rating, Sandbur, S.” value ([12]; 4 g ai/ha, Postemergence) was 90. The “Plant response rating, Sandbur, S.” value ([12]; 16 g ai/ha, Preemergence) was 90, the “Plant response rating, Sandbur, S.” value ([12]; 31 g ai/ha, Preemergence) was 95 and the “Plant response rating, Sandbur, S.” value ([12]; Postemergence, 8 g ai/ha) was 95. The “Plant response rating, Sandbur, S.” value ([12]; Postemergence, 16 g ai/ha) was 100, the “Plant response rating, Sandbur, S.” value ([12]; Postemergence, 31 g ai/ha) was 100 and the “Plant response rating, Sandbur, S.” value ([12]; Preemergence, 4 g ai/ha) was 0.
